Source: publication PMC5319746, “Phospholipid binding to the FAK catalytic domain impacts function” (PLoS ONE, 2017)
Where two headings read alike, the source gives them in different places.

Key:
[1] = target: T1, wild type avian FAK catalytic domain (GST fusion protein) (Gallus gallus, UniProt Q00944); test: Fluorescence anisotropy binding of BODIPY-labeled C6 phosphoinositides to wild type catalytic domain; settings: for Binding to wild type catalytic domain compared with the PI control (ANOVA, Tukey's posttest): anisotropy at 100 and 200 μM protein
T1 construct: the catalytic domain of FAK was expressed as a GST fusion protein; made in house; host or cells: Escherichia coli BL21 (Codon Plus)
Method: (§1) For anisotropy experiments purified GST fusion proteins were incubated with BODIPY (dipyrromethene boron difluoride)-labeled phosphoinosotides with C6-acyl chains (Echelon). Increasing concentrations of purified protein were added to 12.5 nM fluorescent phosphoinositide in buffer containing 20 mM HEPES [pH7.5], 150 mM NaCl, and 5 mM β-mercaptoethanol. Anisotropy measurements were taken at 37°C using a Flourlog spectroflourometer equipped with Glan-Thompson polarizers with FluorEssence software (HORIBA Jobin Yvon). Specific binding of the catalytic domain was determined by subtraction of binding of GST alone. Binding curves and dissociation constants were determined using the Prism 5.0 statistical analysis software (GraphPad).
(§2) PI(4,5)P2 binding was further validated using fluorescence anisotropy. GST and the GST catalytic domain of FAK were incubated with BODIPY-TMR labeled short acyl chain (C6) PI or PI(4,5)P2 and anisotropy measured.
To test the specificity of the lipid interaction, the binding of wild type and RK5A GST-fusion proteins to phosphatidylinositol, PI(4)P, PI(4,5)P2, and PI(3,4,5)P3 was analyzed. Purified GST catalytic domain fusion proteins were titrated into a solution of BODIPY-labeled phospholipids with C6-acyl chains, and anisotropy was measured. Phosphatidylinositol with C6-acyl chains and purified GST were used as controls. Differences in anisotropy of each BODIPY-labeled phospholipid at 100 and 200 μM of each protein were compared by ANOVA and a Tukey’s posttest (S1 Table). […] To calculate binding affinities, anisotropy was plotted against protein concentration and binding to GST was subtracted as background binding. […] To determine if the observed interaction with the short acyl chain PI(4,5)P2 required the basic residues implicated in binding to PI(4,5)P2-containing vesicles, the RK5A mutant was analyzed.

[2] = target: T2, FAK catalytic domain K621A/K627A mutant (GST fusion protein) (Gallus gallus, UniProt Q00944, K621A/K627A); settings: BODIPY-labeled C6 lipid, Fig 7, read-out: Kd for binding (specific binding, GST subtracted)
T2 construct: mutations were engineered into the GST-catalytic domain construct; made in house; host or cells: Escherichia coli BL21 (Codon Plus)
Description: (§3) Short acyl chain (C6) BODIPY labeled PI(4,5)P2, was chosen to assess the ability of these mutants to bind phospholipids using fluorescence anisotropy.

[3] = target: T3, FAK catalytic domain RK5A mutant (GST fusion protein) (Gallus gallus, UniProt Q00944, K515A/K621A/K627A/R508A/R514A); test: Fluorescence anisotropy binding of BODIPY-labeled C6 phosphoinositides to RK5A mutant; parameters: species or system avian
T3 construct: This GST mutant catalytic domain fusion protein was found in the supernatant; made in house; host or cells: Escherichia coli BL21 (Codon Plus)
Method: as §1, §2
To test the specificity of the lipid interaction, the binding of wild type and RK5A GST-fusion proteins to phosphatidylinositol, PI(4)P, PI(4,5)P2, and PI(3,4,5)P3 was analyzed. Purified GST catalytic domain fusion proteins were titrated into a solution of BODIPY-labeled phospholipids with C6-acyl chains, and anisotropy was measured. Phosphatidylinositol with C6-acyl chains and purified GST were used as controls. […]

[4] = target: T4, FAK catalytic domain R508A/K621A mutant (GST fusion protein) (Gallus gallus, UniProt Q00944, K621A/R508A); settings: BODIPY-labeled C6 lipid, Fig 7, read-out: Kd for binding (specific binding, GST subtracted)
T4 construct: mutations were engineered into the GST-catalytic domain construct; made in house; host or cells: Escherichia coli BL21 (Codon Plus)
Description: as §3

[5] = target: T5, FAK catalytic domain R508A/R514A/K515A mutant (GST fusion protein) (Gallus gallus, UniProt Q00944, K515A/R508A/R514A); settings: BODIPY-labeled C6 lipid, Fig 7, read-out: Kd for binding (specific binding, GST subtracted)
T5 construct: mutations were engineered into the GST-catalytic domain construct; made in house; host or cells: Escherichia coli BL21 (Codon Plus)
Description: as §3

[6] = wild type catalytic domain, lipid specificity experiment, Fig 8B, read-out: Kd of the wild type catalytic domain for each phosphatidylinositol phosphate

T1 sequence (Q00944 422-680 limits assumed): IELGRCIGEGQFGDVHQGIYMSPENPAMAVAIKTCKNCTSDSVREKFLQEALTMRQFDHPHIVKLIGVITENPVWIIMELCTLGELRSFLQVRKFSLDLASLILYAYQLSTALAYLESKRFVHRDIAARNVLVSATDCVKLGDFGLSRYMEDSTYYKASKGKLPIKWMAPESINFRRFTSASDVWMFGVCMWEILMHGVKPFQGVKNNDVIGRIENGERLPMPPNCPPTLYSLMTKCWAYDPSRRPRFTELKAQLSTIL
T3 sequence (Q00944 422-680 R508A/R514A/K515A/K621A/K627A limits assumed): as the sequence (Q00944 422-680 limits assumed) above, with R87A, R93A, K94A, K200A, K206A counted along it
T4 sequence (Q00944 422-680 R508A/K621A limits assumed): as the sequence (Q00944 422-680 limits assumed) above, with R87A, K200A counted along it
T2 sequence (Q00944 422-680 K621A/K627A limits assumed): as the sequence (Q00944 422-680 limits assumed) above, with K200A, K206A counted along it
T5 sequence (Q00944 422-680 R508A/R514A/K515A limits assumed): as the sequence (Q00944 422-680 limits assumed) above, with R87A, R93A, K94A counted along it

| Binding to wild type catalytic domain compared with the PI control (ANOVA, Tukey's posttest) [1] | Kd [1, 6] [µM] | Specific binding (in words) ([1]; wild type catalytic domain, anisotropy, GST subtracted) | Kd [2] [µM] | Kd ([3]; BODIPY-labeled C6 lipid, Fig 7 experiment, read-out: Kd for binding (specific binding, GST subtracted)) [µM] | Specific binding (in words) ([3]; anisotropy, GST subtracted) | Kd [4] [µM] | Kd [5] [µM] | Kd ([1]; wild type catalytic domain, BODIPY-labeled C6 lipid 12.5 nM, 37°C, Fig 7 experiment, read-out: Kd for binding (specific binding, GST subtracted)) [µM] | Substance |
| --- | --- | --- | --- | --- | --- | --- | --- | --- | --- |
|  | > 200 | did not specifically bind |  |  |  |  |  |  | phosphatidylinositol [PI] |
| significant | 12.9 ± 2.3 |  | 20.8 ± 2.7 | > 200 | no specific binding | > 200 | 16.4 ± 3.2 | 15.7 ± 6.5 | Phosphatidylinositol-4,5-bisphosphate [PI(4,5)P2] |
| significant | 16 ± 9.2 |  |  |  |  |  |  |  | PI(3,4,5)P3 |

| Substance | Binding to wild type catalytic domain compared with the PI control (ANOVA, Tukey's posttest) [1] | Kd [1, 6] [µM] | Specific binding (in words) ([1]; wild type catalytic domain, anisotropy, GST subtracted) | Kd [2] [µM] | Kd ([3]; BODIPY-labeled C6 lipid, Fig 7 experiment, read-out: Kd for binding (specific binding, GST subtracted)) [µM] | Specific binding (in words) ([3]; anisotropy, GST subtracted) | Kd [4] [µM] | Kd [5] [µM] | Kd ([1]; wild type catalytic domain, BODIPY-labeled C6 lipid 12.5 nM, 37°C, Fig 7 experiment, read-out: Kd for binding (specific binding, GST subtracted)) [µM] |
| --- | --- | --- | --- | --- | --- | --- | --- | --- | --- |
| PI(4)P | approached, but did not reach significance | 11.7 ± 13.7 |  |  |  |  |  |  |  |
